Experimental data taken from patent US10045951B2, “Flaxseed lignan complex and its use thereof” (priority 2007, dated 2018).
Where a SMILES comes first, the peptide text is derived from it. The star is where a group is joined. Cbz = O=C(OCc1ccccc1)*

Assays:
LKR cells = experiment: MTS cell proliferation assay with proteasomal inhibitor; format: cell-based, mouse; conditions: one day post incubation
Method: FIG. 35: Cancer cell proliferation is inhibited by a known pharmacological proteasome inhibitor. LKR cells were incubated with MG 132, a known pharmacological proteasomal inhibitor and cell proliferation was measured using the MTS assay at one day post incubation. There was a dose dependent decrease in cell proliferation with increasing doses of MG 132.
LKR cells derived from an explant of a pulmonary tumor from an activated K-rasG12D mutant mouse were incubated with differing concentrations of MG 132, a known pharmacological proteasomal inhibitor to assess for cell proliferation using the MTS assay.

LKR = experiment: MTS cell proliferation assay with FS lignans: LKR; format: cell-based; conditions: 10 μM for 16 hours
Method: (§1) FIG. 37: FS lignans EL and ED, and their precursor SDG, inhibit cell proliferation in tumor cell lines. Tumor cell lines (LKR, TC-1, and LLC) were incubated with 10 μM or 25 μM of SDG, EL, or ED for 16 hours and processed for MTS assay to measure cell proliferation. The % inhibition of cell growth compared to untreated (no lignan) cell lines was calculated. Bars represent means±SEM. n=3 readings per group.
(§2) Cell proliferation was assessed at this time (time 0), and 24 and 48 hours later.

TC-1 = experiment: MTS cell proliferation assay with FS lignans: TC-1; format: cell-based; conditions: 10 μM for 16 hours
Method: as §1, §2

LLC = experiment: MTS cell proliferation assay with FS lignans: LLC; format: cell-based; conditions: 10 μM for 16 hours
Method: as §1, §2

[1] = test system: streptozotosin-induced Diabetes mellitus; conditions: SDG-treated animals; cited from earlier work
HO-1 = HO-1 immunoblotting in pulmonary microvascular endothelial cells (PMVEC); format: cell-based, mouse; conditions: 10 μM; 1,2,4,6,8 and 10 hours
Method: For mechanistic studies, there is a need to establish whether purified lignans (in appropriate, “pharmacologically achievable” concentrations) have similar effects in cell culture as lignan complex diets have in animals. HO-1 levels were thus evaluated by immunoblotting in primary cultures of pulmonary microvascular endothelial cells (PMVEC) isolated from mouse lungs. PMVEC were incubated with the lignan enterodiole (ED) in micromolar concentrations (10 µM) similar to that seen in mouse plasma levels. Cells were incubated with ED for 1,2,4,6,8 and 10 hours.

Nrf2 = experiment: Nuclear Nrf2 levels in PMVEC; format: cell-based, mouse; conditions: 10 μM
Source text: Nrf2 was detected with our own rabbit polyclonal Antibody (Clone MCS-1a).

[2] = test system: alveolar epithelial cells (A549); experiment: H2O2-induced cell death of alveolar epithelial cells (LDH release); format: cell-based; conditions: 10, 50, 100, 200, 500 uM; 10 mM H2O2 for 1-6 hours
Method: In addition, using the same assay system to detect cell death, LDH release, an evaluation of the efficacy of the lignan enterodiole, ED, to protect alveolar epithelial cells (A549) from oxidant-induced cell death was made. In these experiments, cells were pre-incubated withincreasing concentrations of ED (10, 50, 100, 200, 500 uM) and challenged with hydrogen peroxide (10 mM H2O2) for 1-6 hours. […] (FIG. 20).

ROS generation in PMVEC = experiment: ROS generation (H2DCF) by PMVEC in simulated I/R flow chamber; format: cell-based, mouse; conditions: 5 μM for 5 h prior to I/R
Method: Mouse pulmonary endothelial cells (PMVEC) were grown on coverslips and placed in a Warner chamber and perfused with culture medium for 24 h at a flow rate of 10 dyn/cm^2. Cells were incubated with the Lignan ED (5 μM) for 5 h prior to I/R loaded with H2DCF to monitor ROS immediately before the experiment. I/R in this chamber is simulated by abrupt cessation of perfusate flow and its reinstatement through the chamber 5 minutes later. The images are in pseudocolor with intensity shown on the side bar.

proteasomal activity = experiment: Proteasomal inhibition in GFPu-1 cells (anti-GFP immunoblotting); format: cell-based, human; conditions: for amount of proteasomal inhibition as compared to Lactacystin and MG 132 / proteasomal inhibition compared to untreated cells (GFP expression): 16 hours; for proteasomal inhibition compared to untreated cells (GFP expression): EL 1 μM to 100 μM
Method: FIG. 36: Proteasomal inhibition with EL and ED as compared to known pharmacologic inhibitors Lactacystin and MG 132. GFPu-1 kidney epithelial cells were treated for 16 hours with EL and ED at differing concentrations. Proteasomal inhibition was detected by Western blotting using anti-GFP antibody with increased proteasomal inhibition expressed as accumulation of GFP. Representative Western blots are shown with β actin reference (Top panels). Densitometry was performed with β actin normalization, expressed as fold over untreated control±SEM, n=2-6 (Bottom panel). Dotted line represents control expression of GFP. *p<0.005 vs. untreated, **p<0.01 vs. untreated.
GFP^u-1 cells were used to investigate the impact of one of the flaxseed lignans, enterodiole (ED) on proteasomal activity. GFP^u-1 is an human kidney epithelial (HEK)-derived, stably transfected cell line expressing a short degron (CL1) tagged to green fluorescent protein (GFP) as described […].
Using an in vitro means of quantifying proteasomal inhibition with GFPu-1 cells, differing concentrations of the FS lignans EL and ED were compared with known pharmacologic proteasomal inhibitors MG 132 and Lactacystin, incubated for 16 hours prior to processing. Western blotting was performed on whole […] cell lysates using anti-GFP antibodies to quantify the amount of GFP expressed as a marker of the amount of proteasomal inhibition (FIG. 36, Top panels).

[3] = Lignan content in murine plasma (LC/MS/MS); format: in vivo, mice; conditions: oral, 10 % FS (flaxseed) in diet, FS-fed (10% FS) mouse groups, 4 months post-irradiation, read-out: circulating plasma level
Method: Circulating plasma levels of the flaxseed lignans ED and EL at time of sacrifice (4 months' post-XRT) were determined by liquid chromatography tandem mass spectrometry (LC/MS/MS) using commercially available standards in 95% purity (Chromadex, Inc., Santa Ana, Calif.) shown in FIG. 39. Plasma flaxseed lignan levels were evaluated in 3 randomly selected mice per group (irradiated mice; diet initiated at −3, 0, +2, +4, +6 weeks of radiation exposure).
Detection of flaxseed metabolites in the circulation using analytical methods was used to confirm that mice were feeding on the flaxseed-supplemented diet to reach physiologically relevant levels. Mice were maintained on control (0% FS) or treatment (10% FS) diets given ad libitum for either three weeks prior to XRT and for the entire duration of the experiment (4 months), or started on the day of XRT or 2,4,6 weeks post XRT and continued for 4 months (see scheme on FIG. 38). Plasma evaluation for lignan detection was done at 16 weeks post XRT.

PMVEC = experiment: tBHQ-induced cell death of PMVEC (LDH release); format: cell-based, mouse; conditions: pretreatment 50 μM; 10 μM tBHQ
Method: Given the in vivo data hereinabove, showing protection of lungs from oxidative injury after flaxseed feeding, a confirmation of similar protection of cells in vitro was desired. Relatively high doses of the electrophile tert-butylhydroquinone (tBHQ) were used to oxidatively stress the cells. […] However, pretreatment of cells with 50 µM of the lignan Enterolactone (EL) was sufficient to protect cells up to 50% from tert-butylhydroquinone (tBHQ)-induced cell death (FIG. 19).

SMILES | cell proliferation inhibition (MTS) (LKR cells) | cancer cell proliferation rate (MTS) (LKR) | cancer cell proliferation rate (MTS) (TC-1) | cancer cell proliferation rate (MTS) (LLC) | diabetes [1] | serum and pancreatic lipid peroxidation [1] | HO-1 levels (HO-1) | nuclear Nrf2 levels (Nrf2) | protection from oxidant-induced cell death (LDH release) [2] | ROS generation (ROS generation in PMVEC) | amount of proteasomal inhibition as compared to Lactacystin and MG 132 (proteasomal activity) | proteasomal inhibition compared to untreated cells (GFP expression) (proteasomal activity) | GFP levels (proteasomal inhibition) (proteasomal activity; Example 15) | concentration at 16 weeks post XRT [3] [ng/mL] | protection from tBHQ-induced cell death (PMVEC)
CC(C)C[C@@H](C=O)NC(=O)[C@H](CC(C)C)NC(=O)[C@H](CC(C)C)NC(=O)OCc1ccccc1 [MG 132] (Cbz-Leu-Leu-Leu-aldehyde) | clear dose dependent response | – | – | – | – | – | – | – | – | – | – | – | – | – | –
COc1cc(C[C@@H](CO[C@@H]2O[C@H](CO)[C@@H](O)[C@H](O)[C@H]2O)[C@H](CO[C@@H]2O[C@H](CO)[C@@H](O)[C@H](O)[C@H]2O)Cc2ccc(O)c(OC)c2)ccc1O [SDG, secoisolariciresinol diglucoside] | – | significant decrease | significant decrease | significant decrease | prevention of diabetes | decrease | – | – | – | – | – | – | – | – | –
OC[C@H](Cc1cccc(O)c1)[C@H](CO)Cc1cccc(O)c1 [ED, enterodiol] | – | significant decrease | significant decrease | significant decrease | – | – | robust, time-dependent induction | time-dependent increase | significantly protected | near complete abrogation | comparable to only Lactacystin, not MG 132 | significant amount of proteasomal inhibition | increased GFP levels in a dose-dependent fashion | 14 to 405 | –
O=C1OC[C@H](Cc2cccc(O)c2)[C@H]1Cc1cccc(O)c1 [EL, enterolactone] | – | significant decrease | significant decrease | significant decrease | – | – | – | – | – | – | no significant difference | significant increase | – | 103 to 325 | up to 50%
